Measured values: patent US12162848B2, “Inhibitors of protein tyrosine phosphatase, compositions, and methods of use” (BRISTOL-MYERS SQUIBB COMPANY, priority 2022, dated 2024)
pEC50, pIC50: −log10 of the molar value.

Assays:
PTPN2 enzyme = target: T1, PTPN2 enzyme (Homo sapiens, UniProt P17706); assay: PhosphoSens PTPN2 biochemical assay; conditions: substrate AQT0264 20 μM, room temperature; read-out: PTPN2 BCHEM IC50
T1 sequence (P17706 1-415): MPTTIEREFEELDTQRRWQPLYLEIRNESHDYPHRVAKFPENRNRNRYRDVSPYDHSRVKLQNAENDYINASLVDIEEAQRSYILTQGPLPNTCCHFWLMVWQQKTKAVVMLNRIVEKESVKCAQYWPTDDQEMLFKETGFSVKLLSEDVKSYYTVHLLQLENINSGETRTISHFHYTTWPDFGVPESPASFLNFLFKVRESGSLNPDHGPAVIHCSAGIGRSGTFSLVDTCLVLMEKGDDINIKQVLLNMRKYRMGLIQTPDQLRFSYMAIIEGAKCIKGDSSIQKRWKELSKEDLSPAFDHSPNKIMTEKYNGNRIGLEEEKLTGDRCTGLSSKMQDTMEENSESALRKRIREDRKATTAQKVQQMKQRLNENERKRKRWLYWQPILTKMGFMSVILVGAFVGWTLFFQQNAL
Protocol: A PhosphoSens® kinase assay was performed as described by the vendor (AssayQuant Technologies, Marlborough, MA). Briefly, 1000×solutions of compounds were prepared in DMSO via serial dilution of the 10 mM DMSO stocks using 3-fold intervals in a 384-well reagent plate. 50 nL of the compound dilution series was then added to the corresponding wells of a 384-well assay plate. […] of 1.25×substrate (AQT0264) in 1× assay buffer (50 mM HEPES pH 7.5, 500 μM EGTA, […] MgCl2, 0.01% Brij-35, 1% Glycerol, 1 mM DTT, and 0.2 mg/mL BSA) was transferred to each well of the assay plate to achieve a final substrate concentration of 20 μM. Finally, […] of 5×PTPN2 enzyme stock was added to each well of the assay plate for a final enzyme concentration of […]. Reaction progress curves were collected by sampling fluorescence intensity at the excitation wavelength 360 nm (λex360) and emission wavelength 480 nm (λem480) every 71 seconds for one hour using a Synergy H4 plate reader (BioTek Instruments/Agilent Technologies, Winooski, VT) at room temperature.

[1] = system: phosphorylated STAT1 protein levels in B16-F10 cells; assay: Phospho-STAT1 (Tyr701) HTRF assay in IFN-gamma treated B16-F10 cells; assay type: cell-based; conditions: mouse IFN-gamma 100 ng/mL, 1 hour, read-out: pSTAT1 HTRF B16 EC50
Protocol: B16-F10 cells (ATCC, Manassas, VA, #CRL-6475) were cultured in DMEM growth medium (ThermoFisher Scientific, Waltham, MA, #11995-040) supplemented with 10% heat inactivated FBS (ThermoFisher Scientific, #16140-071) and 1% pen/strep (ThermoFisher Scientific, #15140-122). The cells were seeded into a white opaque 384-well tissue culture treated microplate (PerkinElmer, Waltham, MA, #6007688) at a density of 10,000 cells/well in 20 uL total volume and incubated overnight at 37 C and 5% CO2. 30 nL of compounds dissolved in DMSO were then transferred from a source plate into target wells with the Echo650 acoustic liquid handler (Beckman Coulter, Indianapolis, IN). Negative control wells received 30 nL of DMSO only (0.15% final concentration). Plates were returned to the incubator for 1 hour and then cells treated with either 5 uL of growth medium or 5 uL of growth medium containing 500 ng/mL of recombinant mouse IFN-gamma protein (R&D Systems, Minneapolis, MN, #485-MI/CF, 100 ng/mL final concentration) using the Assist automated pipetting platform (INTEGRA Biosciences, Hudson, NH). Plates were incubated at 37 C for 1 hour and assayed for phosphorylated STAT1 protein levels with the phospho-STAT1 (Tyr701) HTRF kit (Cisbio, Bedford, MA, #63ADK026PEH) according to manufacturer's instructions.

Row | Compound | pIC50 (PTPN2 enzyme) | pEC50 [1]
1 | O=C1CN(c2c(O)cc(C3CCNCC3)cc2F)S(=O)(=O)N1 [EXAMPLE 2, 5-[2-fluoro-6-hydroxy-4-(4-piperidyl)phenyl]-1,1-dioxo-1,2,5-thiadiazolidin-3-one] | 5.89 | 
2 | CN1CCCC(c2cc(O)c(N3CC(=O)NS3(=O)=O)c(F)c2)C1 (stereo not shown) [EXAMPLE 3, 5-(2-fluoro-6-hydroxy-4-(1-methylpiperidin-3-yl)phenyl)-1,2,5-thiadiazolidin-3-one 1,1-dioxide] | 5.33 | 
3 | COc1ncccc1-c1cc(O)c(N2CC(=O)NS2(=O)=O)c(F)c1 [EXAMPLE 25, 5-[2-fluoro-6-hydroxy-4-(2-methoxy-3-pyridyl)phenyl]-1,1-dioxo-1,2,5-thiadiazolidin-3-one] | 6.58 | 5.01
4 | CC(=O)N1CCN(Cc2cc(O)c(N3CC(=O)NS3(=O)=O)c(F)c2)CC1 [EXAMPLE 38, 5-(4-((4-acetylpiperazin-1-yl)methyl)-2-fluoro-6-hydroxyphenyl)-1,2,5-thiadiazolidin-3-one 1,1-dioxide] | 7.08 | 
5 | COCCC1CCN(Cc2cc(O)c(N3CC(=O)NS3(=O)=O)c(F)c2)CC1 [EXAMPLE 55, 5-[2-fluoro-6-hydroxy-4-[[4-(2-methoxyethyl)-1-piperidyl]methyl]phenyl]-1,1-dioxo-1,2,5-thiadiazolidin-3-one] | 6.40 | 4.95
6 | CCCCC1CCN(Cc2cc(O)c(N3CC(=O)NS3(=O)=O)c(F)c2)CC1 [EXAMPLE 57, 5-[4-[(4-butyl-1-piperidyl)methyl]-2-fluoro-6-hydroxy-phenyl]-1,1-dioxo-1,2,5-thiadiazolidin-3-one] | 6.42 | 4.96
7 | CN(C)C1CCN(Cc2ccc(O)c(N3CC(=O)NS3(=O)=O)c2F)CC1 [EXAMPLE 102, 5-(3-((4-(dimethylamino)piperidin-1-yl)methyl)-2-fluoro-6-hydroxyphenyl)-1,2,5-thiadiazolidin-3-one 1,1-dioxide] |  | ≤ 4.82

More lines, now with the values ahead:

Row | pIC50 (PTPN2 enzyme) | pEC50 [1] | Compound
8 | 5.56 |  | CC(C)CCN1CCC(c2cc(O)c(N3CC(=O)NS3(=O)=O)c(F)c2)CC1 [EXAMPLE 6, 5-[2-fluoro-6-hydroxy-4-(1-isopentyl-4-piperidyl)phenyl]-1,1-dioxo-1,2,5-thiadiazolidin-3-one]
9 | 7.15 | 5.73 | N#Cc1cc(CNCc2cc(O)c(N3CC(=O)NS3(=O)=O)c(F)c2)ccc1F [EXAMPLE 45, 2-fluoro-5-[[[3-fluoro-5-hydroxy-4-(1,1,4-trioxo-1,2,5-thiadiazolidin-2-yl)phenyl]methylamino]methyl]benzonitrile]
10 | 6.48 | 4.88 | CC(C)OC1CCN(Cc2cc(O)c(N3CC(=O)NS3(=O)=O)c(F)c2)CC1 [EXAMPLE 54, 5-[2-fluoro-6-hydroxy-4-[(4-isopropoxy-1-piperidyl)methyl]phenyl]-1,1-dioxo-1,2,5-thiadiazolidin-3-one]
11 |  | ≤ 4.82 | CN(Cc1cc(O)c(N2CC(=O)NS2(=O)=O)c(F)c1)C1CCC(C)(C)CC1 [EXAMPLE 77, 5-[4-[[(4,4-dimethylcyclohexyl)-methyl-amino]methyl]-2-fluoro-6-hydroxy-phenyl]-1,1-dioxo-1,2,5-thiadiazolidin-3-one]
12 | 5.92 |  | O=C1CN(c2c(O)cc(NC3CCNCC3)cc2F)S(=O)(=O)N1 [EXAMPLE 88, 5-(2-fluoro-6-hydroxy-4-(piperidin-4-ylamino)phenyl)-1,2,5-thiadiazolidin-3-one 1,1-dioxide]
13 |  | ≤ 4.82 | O=C1CN(c2c(O)ccc(CN3CCC(F)CC3)c2F)S(=O)(=O)N1 [EXAMPLE 98, 5-(2-fluoro-3-((4-fluoropiperidin-1-yl)methyl)-6-hydroxyphenyl)-1,2,5-thiadiazolidin-3-one 1,1-dioxide]
14 |  | ≤ 4.82 | CC(C)CCN1CCN(Cc2ccc(O)c(N3CC(=O)NS3(=O)=O)c2F)CC1 [EXAMPLE 104, 5-[2-fluoro-6-hydroxy-3-[(4-isopentylpiperazin-1-yl)methyl]phenyl]-1,1-dioxo-1,2,5-thiadiazolidin-3-one]
